This note sets out measurements from the METLIN SMRT retention time set (Domingo-Almenara et al. 2019).

The data set in a line: gradient 5% acetonitrile 3 min, to 50% in 2 min, to 85% in 15 min, held 3 min, 100 µL/min. The following applies: column: Zorbax Extend-C18 2.1 x 50 mm; eluents: water / acetonitrile, 0.1% formic acid. The essentials: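 A Zorbax Extend-C18 column (2.1 × 50 mm, 1.8 μm) run at 100 μL/min with water and acetonitrile, both containing 0.1% formic acid, separated mixtures of ~100 pure standards. The HPLC was coupled to a quadrupole time-of-flight mass spectrometer operated in positive and negative ionization mode, with dead and dwell volumes of 40 μL and 900 μL. Each retention time was taken from a computationally picked adduct peak that was then manually inspected.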
`O=C1C=C(N2CCNCC2)C(=O)c2c(O)ccc(O)c21`: the RP-LC retention time was 600 s.
`Cc1ccc(-c2nc(N3CCSCC3)ncc2C(=O)O)cc1` had an RP-LC retention time of 918 s.
To `CCCCN(C)C(=O)c1sc(-c2cn(C(C)C)c3ncccc23)nc1C` belongs 1010 s; to `CCn1cc(S(=O)(=O)Nc2cccc(C#N)c2)c2cccnc21`, 781 s.
Then `CCC(=O)N(C1CCOCC1)C1CCN(S(=O)(=O)c2ccc(F)c(Cl)c2)CC1`, with 884 s.
Then `CN(Cc1cc(C(F)(F)F)ccc1Cl)C1CCc2nn(C)c(=O)n2CC1` (stereo not given), with 610 s; and `COCCC1(NS(C)(=O)=O)CCN(C(=O)NCC(C)C)CC1`, with 646 s; and `CCOC(=O)c1noc2ncnc(N(CC)c3ccccc3)c12`, with 948 s.
Take `Cc1nc2cc(N3CC(C(=O)NCc4ccccc4F)CC3=O)ccc2o1` (stereo not given): the RP-LC retention time was determined as 699 s.
To `COc1ccc(-c2nc(-c3ccc4c(c3)oc(=O)n4C(C)C)no2)c(C)c1` belongs 1270 s; to `Cc1ccc(C(CC(=O)NCCN2CCOCC2)N2Cc3ccccc3C2=O)cc1` (stereo not given), 642 s.
To `COc1ccc(-n2c(=O)c(C(=O)Nc3ccc(F)c(Cl)c3)c(O)c3cccnc32)cc1` belongs 1370 s.
Then `COc1cccc(C2CC(c3cccc(NS(C)(=O)=O)c3)=NN2C(=O)C(C)(C)C)c1O` (stereo not given), with 820 s; and `O=C(CCCc1ccccc1)NCC(=O)N1CCN(c2ccccn2)CC1`, with 605 s; and `CCCN1C(=O)COc2ccc(-c3noc(CNS(=O)(=O)c4ccc(F)cc4)n3)cc21`, with 884 s.
For the compound `O=C(Nc1ccc(-c2nc3ccccc3o2)cc1)c1ccc(S(=O)(=O)N2CCCC2)cc1`, the RP-LC retention time was found to be 1000 s.
To `CCOC(=O)c1cc(C)nc2c1c(=O)n(Cc1ccc(F)cc1)c(=O)n2C` belongs 1070 s; to `CC(C)(C)c1ccc(C(=O)Nc2ccc3c(c2)C(=O)NC3=O)cc1`, 853 s.
Then `Cc1ccc(C(=O)Nc2ccc(OCc3nnc(-c4ccccc4)o3)cc2)s1`, with 988 s.
To `Cc1cccc(NC(=O)N2CCN(c3cnn4c(C)nnc4c3)CC2)c1` belongs 627 s; to `CCc1ccc(OCc2nc(CCN(C)C(=O)c3ccco3)no2)cc1`, 910 s; to `Cc1ccc(-n2nc(N3CCCC(C(=O)Nc4cccc(C)c4C)C3)ccc2=O)cc1Cl` (stereo not given), 999 s.
`O=C(O)CNS(=O)(=O)c1cccc2nsnc12` yielded an RP-LC retention time of 595 s.
Then `COc1cc(NC(=O)c2cnc3c(c2)c(=O)n(C)c(=O)n3-c2ccc(C)cc2)cc(OC)c1`, with 952 s.
Then `COc1ccc(C(=O)c2cnc3ccc(OC)cc3c2N2CCOCC2)cc1`, with 677 s; and `Cc1cc(=O)n(CC(=O)NCc2ccc(F)cc2F)c(N2CCCCC2)n1`, with 657 s; and `CC(=O)N1CCCC(c2nc(CNC(=O)C(C)C)cs2)C1` (stereo not given), with 609 s.
Consider `CCC(Oc1ccc(=O)n(-c2ccc(F)cc2)n1)C(=O)NCCC(C)C` (stereo not given), for which the RP-LC retention time was found to be 804 s.
For the compound `COc1ccc(NC(=O)Cn2c(N3CCOCC3)nc(C)cc2=O)cc1F`, the RP-LC retention time is 644 s.
`CCn1cc(-c2nc(C(=O)Nc3cc(C)ccc3F)cs2)c2cccnc21` showed an RP-LC retention time of 1240 s.
Then `Cc1ccc(OCc2ccc(-c3nc(C#N)c(NCCCN(C)C)o3)o2)cc1`, with 717 s.
To `O=C(O)CCCCCNc1nc(-c2ccccc2)nc2ccccc12` belongs 623 s; to `CCCC(NC(=O)c1cc(C)cc(C)c1)C(=O)Nc1nc2ccccc2[nH]1` (stereo not given), 751 s; to `O=C(NCc1n[nH]c(=O)c2ccccc12)c1ccc([N+](=O)[O-])o1`, 606 s.
In the case of `CCOCCCNC(=O)C1c2c(n(C)c3ccccc23)SCC(=O)N1Cc1ccc(OC)cc1` (stereo not given), the RP-LC retention time is 875 s.
Regarding `Fc1ccc(-c2nc(CC3CCNC3)no2)cc1` (stereo not given), the RP-LC retention time was determined as 621 s.
To `Cc1ccc2nc(C3CN(C(=O)COc4ccc(Cl)cc4Cl)C3)[nH]c2c1` belongs 610 s; to `CC1(C(=O)NC2CCCCCCC2)CN(S(C)(=O)=O)CC(=O)N1Cc1ccc(Cl)cc1` (stereo not given), 993 s; to `CCOc1ncccc1CNC(=O)c1ccc2cc[nH]c2c1`, 756 s.
`Cc1ccccc1-c1noc(C2CC(=O)N(c3ccc4c(c3)OCO4)C2)n1` (stereo not given) returned an RP-LC retention time of 718 s.
To `COc1ccc(-c2c(C(=O)Nc3cccc(C(C)=O)c3)nc3ccccn23)cc1` belongs 937 s.
Regarding `CCCc1noc(-c2ccc(-n3ncc(C(=O)N4CCSCC4)c3C)nc2)n1`, the RP-LC retention time is 967 s.
To `COCCNC(=O)NC1CCN(C2=NS(=O)(=O)C(c3ccc(C)cc3)=C2C)CC1` belongs 1140 s; to `CC1Oc2ccc(-c3csc(NC(=O)C4CC4)n3)cc2N(C)C1=O` (stereo not given), 787 s.
Compound `Cc1cc(C)cc(NC(=O)Cn2cc(-c3noc(-c4ccncc4)n3)nc2C)c1` returned an RP-LC retention time of 735 s.
To `CCC(C)NC(=O)Cn1nc2c3sc(N(C)C)nc3ncn2c1=O` (stereo not given) belongs 1130 s; to `CCc1ccc(S(=O)(=O)N2CCC(n3cnnc3C)CC2)cc1`, 715 s; to `Cc1nc(-c2ccc(-n3cc(C(=O)Nc4ccc(Br)cc4F)c(C)n3)cc2)no1`, 962 s.
To `Cc1ccc(-c2noc(-c3cccc(S(=O)(=O)NCCN4CCCCCC4)c3)n2)cc1` belongs 794 s; to `O=C(Cn1c(=O)c2cc(C3CC3)nn2c2ncccc21)Nc1ccc2c(c1)OCCO2`, 736 s.
In turn, `CC(C)CC1c2nccn2CCCN1C(=O)c1cc(C2CC2)[nH]n1` (stereo not given) displayed an RP-LC retention time of 614 s.
Turning to `COc1ccc(-c2cnn(CC(=O)Nc3cc(F)cc(F)c3)c(=O)n2)cc1`, the RP-LC retention time is 872 s.
To `COc1ccc(-c2cc(N3CCN(C(=O)Nc4ccc5c(c4)OCCO5)CC3)ncn2)cc1` belongs 652 s.
Then `CN(C)C(=O)c1ccc2c(c1)nnn2CCNC(=O)Nc1cccc(Cl)c1`, with 684 s; and `Cn1nc(C(=O)N2CCCCC2)c2c1CCN(C(=O)CCC(=O)NCCCN1CCCC1)C2`, with 579 s.
Then `CCCNC(=O)Cc1nnc(-c2ccc(C)cc2)o1`, with 710 s; and `Nc1nnc(CS(=O)(=O)c2ccccc2)o1`, with 568 s; and `CN(CC1(C)CCOCC1)S(=O)(=O)c1ccccc1C(F)(F)F`, with 820 s.
Compound `CCc1nncn1C1CCN(S(=O)(=O)c2ccc(C)c(C)c2)CC1` gave an RP-LC retention time of 731 s.
To `Cc1ccc(C)c(Sc2ccc(N3CCC(C(=O)NCCC4=CCCCC4)CC3)nn2)c1` belongs 1010 s.
